We go through 23 molecules from ChEMBL document CHEMBL1201862, “PubChem BioAssay data set” (2004).

SMILES strings stand for the structures. The source made the active and inactive calls.

Test [1] has as its target T1, Heat shock factor protein 1 (Mus musculus, UniProt P38532).
T1 sequence (P38532 whole entry): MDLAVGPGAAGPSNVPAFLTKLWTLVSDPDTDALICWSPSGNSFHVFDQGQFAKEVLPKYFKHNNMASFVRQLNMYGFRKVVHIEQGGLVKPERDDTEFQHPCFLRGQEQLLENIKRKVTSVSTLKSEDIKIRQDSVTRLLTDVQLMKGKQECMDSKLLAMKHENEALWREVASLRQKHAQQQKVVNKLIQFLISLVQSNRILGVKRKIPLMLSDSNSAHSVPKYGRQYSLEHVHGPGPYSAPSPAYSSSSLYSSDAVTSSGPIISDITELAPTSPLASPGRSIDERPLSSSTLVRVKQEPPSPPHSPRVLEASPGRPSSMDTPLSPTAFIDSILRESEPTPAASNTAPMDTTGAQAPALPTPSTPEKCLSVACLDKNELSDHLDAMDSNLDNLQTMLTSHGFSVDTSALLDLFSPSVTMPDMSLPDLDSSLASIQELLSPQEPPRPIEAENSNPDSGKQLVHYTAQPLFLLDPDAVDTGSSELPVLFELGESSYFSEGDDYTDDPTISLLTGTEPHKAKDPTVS
Kind of test: decrease of HSF1-responsive luciferase luminescence – cell-based, NIH3T3, dose retest, confirmation (AID 2382).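 Note: NIH3T3 fibroblasts with HSF1-driven luciferase reporter stressed by proteasome inhibitor MG132; luminescence from HSF1-driven luciferase expression after 8 hours of MG132 stress.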 The format is functional.

A further test addresses Cytochrome P450 2C9 (Homo sapiens, UniProt P11712).
Another test concerns the target Cytochrome P450 3A4 (Homo sapiens, UniProt P08684).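 Note: CYP3A4 tested as one member of a cytochrome P450 panel screen.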
Another test concerns the target T2, Protein RecA (Mycobacterium tuberculosis, UniProt P9WHJ3).
T2 sequence (P9WHJ3 whole entry): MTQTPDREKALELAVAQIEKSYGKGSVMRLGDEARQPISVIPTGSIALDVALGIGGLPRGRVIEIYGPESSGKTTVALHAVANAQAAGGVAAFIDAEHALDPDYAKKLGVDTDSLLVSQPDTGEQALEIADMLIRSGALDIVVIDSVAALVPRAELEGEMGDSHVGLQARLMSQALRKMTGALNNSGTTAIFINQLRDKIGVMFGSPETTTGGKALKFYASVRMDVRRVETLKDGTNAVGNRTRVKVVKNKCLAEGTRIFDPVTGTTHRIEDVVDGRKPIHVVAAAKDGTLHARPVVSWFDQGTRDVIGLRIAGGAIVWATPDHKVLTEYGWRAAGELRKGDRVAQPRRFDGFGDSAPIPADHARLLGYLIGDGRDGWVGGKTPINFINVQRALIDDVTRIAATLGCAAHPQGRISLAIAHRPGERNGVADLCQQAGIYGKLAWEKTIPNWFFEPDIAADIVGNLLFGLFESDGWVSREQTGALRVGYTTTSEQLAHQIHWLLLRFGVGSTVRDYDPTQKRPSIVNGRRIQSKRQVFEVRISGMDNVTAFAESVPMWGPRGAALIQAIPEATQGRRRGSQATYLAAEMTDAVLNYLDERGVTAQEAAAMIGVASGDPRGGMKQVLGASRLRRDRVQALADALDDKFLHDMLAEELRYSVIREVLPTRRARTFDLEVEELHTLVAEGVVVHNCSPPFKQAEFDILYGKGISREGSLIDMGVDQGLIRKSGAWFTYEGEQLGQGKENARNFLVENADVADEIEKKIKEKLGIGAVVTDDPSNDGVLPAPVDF
The experiment in a line: Fluorescence Cell-Free Homogeneous Dose Retest to Identify Inhibitors of RecA-Intein Splicing Activity. [Related pubchem assays (depositor defined):AID2097, AID2223, AID489010, AID492950]. The format is functional.

For test [2], the target named is T3, Replicative DNA helicase DnaB (Mycobacterium tuberculosis, UniProt P9WMR3).
T3 sequence (P9WMR3 whole entry): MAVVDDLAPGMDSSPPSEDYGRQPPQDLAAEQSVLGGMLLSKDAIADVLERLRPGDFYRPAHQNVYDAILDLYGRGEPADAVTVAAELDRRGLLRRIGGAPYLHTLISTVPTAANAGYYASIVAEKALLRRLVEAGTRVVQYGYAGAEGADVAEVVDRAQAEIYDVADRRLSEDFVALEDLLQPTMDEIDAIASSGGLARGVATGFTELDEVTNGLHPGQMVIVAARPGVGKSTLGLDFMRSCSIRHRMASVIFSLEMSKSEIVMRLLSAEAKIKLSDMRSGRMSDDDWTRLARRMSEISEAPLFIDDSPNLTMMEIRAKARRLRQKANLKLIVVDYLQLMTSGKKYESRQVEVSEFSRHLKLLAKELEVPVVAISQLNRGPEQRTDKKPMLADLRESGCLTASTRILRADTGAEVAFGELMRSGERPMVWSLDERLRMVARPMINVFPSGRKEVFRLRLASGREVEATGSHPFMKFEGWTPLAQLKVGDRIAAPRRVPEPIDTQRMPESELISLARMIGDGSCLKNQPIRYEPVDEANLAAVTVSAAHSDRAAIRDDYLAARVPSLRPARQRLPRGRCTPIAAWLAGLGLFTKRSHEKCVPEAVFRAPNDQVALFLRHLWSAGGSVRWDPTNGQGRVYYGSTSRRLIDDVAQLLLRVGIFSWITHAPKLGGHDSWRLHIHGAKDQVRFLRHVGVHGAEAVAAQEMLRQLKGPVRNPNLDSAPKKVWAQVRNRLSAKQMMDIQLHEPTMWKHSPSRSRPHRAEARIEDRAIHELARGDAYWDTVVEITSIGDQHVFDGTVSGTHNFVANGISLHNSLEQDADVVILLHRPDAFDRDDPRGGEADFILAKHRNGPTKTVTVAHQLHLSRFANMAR
Kind of test: DnaB intein splicing inhibitors, dose response, biochemical, cell-free fluorescence (AID 449749). The test is classed as functional.

The nature of test [3]: Luminescence Cell-Based Dose Confirmation HTS to Identify Activators of 5'UTR Stem-Loop Driven Alpha-Synuclein mRNA Translation in H4 Neuroglioblastoma Cells. [Related pubchem assays: 1829 (Project Summary), 1814 (Primary HTS)]. The format is functional.
Test [4] is described as follows: NIH3T3 cell viability loss – ATP luminescence, mouse fibroblasts, counter-screen, dose response (AID 2010).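 Note: cells exposed to compound for about 90 hours before reading.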 The test is classed as functional, cell-based.
Test [5] is described as follows: Luminescence Cell-Based Dose Response HTS to Identify Activators of Luciferase Translation or Activity in H4 […] Cells. [Related pubchem assays: 1829 (Project Summary), 1814 (Primary HTS)]. The format is functional.
Test [6] can be described thus: Trypanosoma cruzi growth suppression in host cells – NIH3T3 host cells, beta-gal luminescence, confirmation (AID 2044).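 Note: intracellular parasites grown in NIH/3T3 mouse fibroblasts as host cells; luminescent beta-galactosidase reporter signal from transgenic T. cruzi replicating inside host cells; inhibitors lower the luminescence signal.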 The test is classed as functional, cell-based.
A further test deals with H4. The experiment in a line: Luminescence Cell-Based Dose Response HTS to Identify Activators of 5'UTR Stem-Loop Driven Prion Protein mRNA Translation in H4 Neuroglioblastoma Cells. [Related pubchem assays: 1829 (Project Summary), 1814 (Primary HTS)]. The note with it: Homo sapiens. The format is functional.
Another test deals with INS1. Kind of test: INS-1E survival protection against cytokine death – cell-based, luminescence, retest, dose response (AID 449756).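 Note: cell death triggered by IL-1 beta plus TNF-alpha plus IFN-gamma mixture; protective hits raise ATP signal compared with cytokine alone wells.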 The test is classed as functional. The note with it: Rattus norvegicus.
Another test addresses Cytochrome P450 2C19 (Homo sapiens, UniProt P33261). Kind of test: Cytochrome panel assay with activity outcomes. Panel member name: p450-cyp2c19 Compounds with AC50 equal or less than 10 uM are considered active. The format is functional. The conditions noted are these: read-out: AC50.
The target of the next test is T4, Cytochrome P450 1A2 (Homo sapiens, UniProt P05177).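 Note: PubChem cytochrome P450 panel assay, CYP1A2 panel member.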
T4 sequence (P05177 whole entry): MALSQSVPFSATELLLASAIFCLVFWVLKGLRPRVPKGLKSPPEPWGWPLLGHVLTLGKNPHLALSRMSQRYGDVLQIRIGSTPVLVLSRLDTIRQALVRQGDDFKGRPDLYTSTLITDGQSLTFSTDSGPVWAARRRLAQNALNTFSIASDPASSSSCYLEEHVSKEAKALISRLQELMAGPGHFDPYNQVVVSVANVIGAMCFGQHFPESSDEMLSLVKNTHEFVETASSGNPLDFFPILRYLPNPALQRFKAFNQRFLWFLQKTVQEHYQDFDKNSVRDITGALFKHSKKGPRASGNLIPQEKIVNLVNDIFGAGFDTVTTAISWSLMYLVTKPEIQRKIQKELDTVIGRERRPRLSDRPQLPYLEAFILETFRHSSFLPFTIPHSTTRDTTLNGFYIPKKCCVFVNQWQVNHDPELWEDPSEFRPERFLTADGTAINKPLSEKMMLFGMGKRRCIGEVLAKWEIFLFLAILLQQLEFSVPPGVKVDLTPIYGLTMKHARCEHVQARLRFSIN

The target of the next test is Paired box protein Pax-8 (Homo sapiens, UniProt Q06710). The experiment in a line: PAX8 transcriptional activity inhibition in RMG-I – RMG-I cells, luciferase, cherry-pick, dose response (AID 687027).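 Note: luciferase reporter driven by Pax8 target thyroperoxidase promoter measured by SteadyGlo luminescence.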 The format is functional, cell-based.
Chain of Paired box protein Pax-8 (Q06710 whole entry): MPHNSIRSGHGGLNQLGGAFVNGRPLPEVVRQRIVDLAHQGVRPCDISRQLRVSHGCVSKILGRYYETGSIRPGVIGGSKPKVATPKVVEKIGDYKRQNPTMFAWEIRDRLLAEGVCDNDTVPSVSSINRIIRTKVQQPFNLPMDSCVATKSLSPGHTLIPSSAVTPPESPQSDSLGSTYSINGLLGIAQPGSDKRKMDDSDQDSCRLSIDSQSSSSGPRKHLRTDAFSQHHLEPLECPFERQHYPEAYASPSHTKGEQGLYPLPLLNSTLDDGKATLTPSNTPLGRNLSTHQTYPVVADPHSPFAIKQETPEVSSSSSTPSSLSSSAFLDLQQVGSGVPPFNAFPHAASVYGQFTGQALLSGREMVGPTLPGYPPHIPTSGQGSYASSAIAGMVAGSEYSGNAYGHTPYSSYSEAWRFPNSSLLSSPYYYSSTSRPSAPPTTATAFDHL

Chain of Cytochrome P450 3A4 (P08684 whole entry): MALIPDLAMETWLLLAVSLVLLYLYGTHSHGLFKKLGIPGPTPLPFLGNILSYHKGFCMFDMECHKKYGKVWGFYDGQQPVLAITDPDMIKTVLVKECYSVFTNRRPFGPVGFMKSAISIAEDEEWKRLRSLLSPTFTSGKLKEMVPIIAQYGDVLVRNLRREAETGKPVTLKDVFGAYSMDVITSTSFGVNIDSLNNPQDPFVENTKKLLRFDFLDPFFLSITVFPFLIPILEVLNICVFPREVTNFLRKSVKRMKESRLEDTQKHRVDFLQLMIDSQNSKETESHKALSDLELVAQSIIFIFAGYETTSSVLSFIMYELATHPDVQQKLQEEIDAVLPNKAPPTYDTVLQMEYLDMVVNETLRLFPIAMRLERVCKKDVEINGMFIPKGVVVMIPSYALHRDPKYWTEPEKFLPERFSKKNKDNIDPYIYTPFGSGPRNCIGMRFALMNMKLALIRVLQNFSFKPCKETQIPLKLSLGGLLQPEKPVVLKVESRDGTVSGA
Chain of Cytochrome P450 2C9 (P11712 whole entry): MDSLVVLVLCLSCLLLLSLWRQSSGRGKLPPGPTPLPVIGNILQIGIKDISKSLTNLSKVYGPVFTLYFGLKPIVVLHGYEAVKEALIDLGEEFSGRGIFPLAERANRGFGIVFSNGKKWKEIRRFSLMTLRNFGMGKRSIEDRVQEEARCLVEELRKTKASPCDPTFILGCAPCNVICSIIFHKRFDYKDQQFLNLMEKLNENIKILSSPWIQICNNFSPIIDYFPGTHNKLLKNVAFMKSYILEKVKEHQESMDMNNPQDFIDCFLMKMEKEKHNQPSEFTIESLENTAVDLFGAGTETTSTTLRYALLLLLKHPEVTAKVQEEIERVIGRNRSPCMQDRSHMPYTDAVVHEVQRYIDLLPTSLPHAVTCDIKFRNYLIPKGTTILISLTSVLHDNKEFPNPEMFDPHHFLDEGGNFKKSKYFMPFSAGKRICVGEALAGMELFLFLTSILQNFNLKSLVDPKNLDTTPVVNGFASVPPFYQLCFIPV
Chain of Cytochrome P450 2C19 (P33261 whole entry): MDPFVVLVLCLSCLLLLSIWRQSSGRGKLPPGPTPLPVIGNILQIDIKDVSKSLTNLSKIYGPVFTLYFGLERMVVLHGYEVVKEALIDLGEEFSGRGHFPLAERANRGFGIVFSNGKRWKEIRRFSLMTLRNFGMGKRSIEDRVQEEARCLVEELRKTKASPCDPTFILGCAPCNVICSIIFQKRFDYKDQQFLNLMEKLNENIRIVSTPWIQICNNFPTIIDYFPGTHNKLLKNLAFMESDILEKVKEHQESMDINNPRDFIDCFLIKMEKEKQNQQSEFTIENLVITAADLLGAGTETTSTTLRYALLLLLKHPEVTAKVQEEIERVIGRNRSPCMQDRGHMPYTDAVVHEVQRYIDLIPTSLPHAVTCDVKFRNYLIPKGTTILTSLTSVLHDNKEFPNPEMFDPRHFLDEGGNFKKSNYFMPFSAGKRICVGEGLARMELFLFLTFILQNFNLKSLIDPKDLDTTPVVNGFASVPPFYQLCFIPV

The term EC50 denotes the midpoint of the concentration-response curve. One may read the AC50 as the concentration at which the activity in the assay is half-maximal. Consider `COC(=O)c1nn(-c2cccc(C(F)(F)F)c2)c(=O)cc1Sc1ccccn1`, for which, in test [1], the EC50 is > 195 µM (not active). The AC50 on Cytochrome P450 2C9 was 3.98 µM (inconclusive); on Cytochrome P450 3A4, 20 µM (inconclusive).

As for `COc1cc(C2C(C#N)=C(N)Oc3[nH]nc(-c4cccnc4)c32)ccc1OCC(N)=O` (stereo not drawn), the EC50 on Protein RecA is 3.16 µM (active). The AC50 in test [2] is 48.5 µM (active).

As for `CCc1ccc2nc(O)c(CN(Cc3ccccc3OC)C(=O)Nc3ccccc3OC)cc2c1`, the EC50 in test [3] was 111 µM (active); in test [4], > 60 µM (not active); in test [5], > 120 µM (not active); in test [6], 3 µM (active); in the test on H4, 111 µM (active).

On to `O=C(Nc1nnc(-c2ccccc2F)s1)C1CCCO1` (stereo not drawn), for which the EC50 in test [3] was 0.223 µM (active); in [5] it was 0.89 µM (active).

Turning to `COc1cc2c(cc1OC)CN(c1ccc3ccccc3n1)CC2`, the EC50 in test [3] is 17 µM (active); in test [5], 11.9 µM (active); in the test with H4, 15.9 µM (active).

As to `CCOC(=O)/C(C#N)=C1/C=CN(c2ccc(C)cc2)C=N1`, the EC50 is > 120 µM (not active) in test [3], 14.9 µM (active) in [5] and 14.8 µM (active) with H4.

In the case of `CCCCCn1c(=O)c(C(=O)NCc2ccccc2Cl)c(O)c2ccccc21`, in the test with INS1, the AC50 is 8.04 µM (active).

In the case of `O=C(c1c[nH]c(C(=O)C(Cl)(Cl)Cl)c1)c1ccc(F)cc1F`, on Protein RecA, the EC50 was 7.8 µM (active). In addition, in test [2], the AC50 is 21.2 µM (active).

Turning to `O=c1c2cc(-c3ccccc3)sc2ncn1-n1cccc1`, the values for the EC50 (in [3]; in test [5]; in the test on H4) were 0.473 µM (active), 0.674 µM (active) and 15 µM (active), respectively.

As to `Cc1cccc(-n2ccnc2SCC(=O)Nc2nccs2)c1`, the EC50 in [3] is 6.34 µM (active); in [5], 23.4 µM (active); in the test with H4, > 120 µM (not active).

In the case of `CC(=O)n1c2c(c3ccccc31)OC(N)=C(C#N)C2c1ccc(C(C)C)cc1` (stereo not drawn), the EC50 in [3] is 11.7 µM (active); in test [5], 10 µM (active); in the test on H4, 16.2 µM (active).

As to `CCCc1cc2c(=O)c(-c3ccc4c(c3)OCCO4)coc2cc1OS(C)(=O)=O`, the EC50 in test [3] is 0.103 µM (active); in test [5], < 0.195 µM (inconclusive); in the test with H4, > 120 µM (not active).

Regarding `Cc1cc(C)c2c(N)c(C(=O)Nc3cccc(C)c3C)sc2n1`, the EC50 in test [3] is > 120 µM (not active); in test [5] it was 3.92 µM (active); in the test with H4, > 120 µM (not active).

Take `Cc1[nH]nc(O)c1C(c1ccc(Cl)cc1)c1c(O)n[nH]c1C`: on Protein RecA, the EC50 is 0.461 µM (active). The AC50 in test [2] is 1.27 µM (active).

In the case of `Cc1ccc(C)c(NC(=O)c2cc3ccccn3n2)c1`, the results for the EC50 (in [3]; in test [5]; in the test with H4) were 0.765 µM (active), 0.163 µM (active) and 41.1 µM (active), respectively.

Turning to `CCc1ccc(N2C(=O)/C(=C/c3cccs3)N(CC(=O)OC)C2=S)cc1`, the AC50 on Cytochrome P450 2C9 is 12.6 µM (inconclusive); on Cytochrome P450 2C19, 3.98 µM (inconclusive); on Cytochrome P450 3A4, 12.6 µM (inconclusive); on Cytochrome P450 1A2 it was 15.8 µM (inconclusive).

Turning to `O=C(c1ccc(C[S+]([O-])Cc2ccccc2Cl)o1)N1CCN(C2CCCCC2)CC1` (stereo not drawn), the EC50 (in [3]; in test [5]; in the test with H4) was > 120 µM (not active) each time.

On to `NC[C@](O)(CS(=O)(=O)O)c1ccc(Cl)cc1`, for which the AC50 on Cytochrome P450 3A4 is 1 µM (inconclusive); at Cytochrome P450 1A2 it was 31.6 µM (inconclusive).

Turning to `COc1ccnc(N=CNOCc2ccc(C)cc2)c1C#N`, the EC50 is 14.7 µM (active) in [3], 12.5 µM (active) in [5] and 55.5 µM (active) in the test with H4.

For `COC(=O)COc1c(Cl)cc(C(c2c(C)n[nH]c2O)c2c(C)n[nH]c2O)cc1OC`, the EC50 on Protein RecA was 0.158 µM (active). Also, the AC50 in test [2] is 0.47 µM (active).

In the case of `C[C@H](O)C#Cc1cnc2c(c1)C(=O)N([C@H](C)CO)C[C@H](C)[C@H](CN(C)Cc1ccc(-c3ccccc3)cc1)O2`, on Paired box protein Pax-8, the AC50 is 5.05 µM (active).

For the molecule `Cc1ccc(S(=O)(=O)N(C)C[C@H]2OCCCC[C@@H](C)Oc3ccc(NS(=O)(=O)c4ccc(F)cc4)cc3C(=O)N([C@@H](C)CO)C[C@H]2C)cc1`, the AC50 at Paired box protein Pax-8 is 8.12 µM (active).

With `O=[N+]([O-])c1cccc(/C=N/n2cnnc2)c1`, the AC50 in the test with INS1 is > 260 µM (inactive).
